Measurements as given in the supplement of paper PMC10627819.

Columns and labels:
[1] = test system: S. aureus DSM 20231; assay: Bliss interaction score (quartile over a dose matrix) (fitness difference); higher = more antagonism (negative = synergy)
In short: (§1)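 The Bliss score takes observed fitness and subtracts the expected fitness, calculated as a product of single-drug fitness values. Those single-drug values were inferred from the combination data. Fitness is OD595 at entry into stationary phase divided by the plate's robust no-drug mean, capped at 1, and the score is summarised by quartiles across technical, biological and donor/recipient replicates.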

[2] = test system: B. subtilis 168; assay: as above
In short: as §1

[3] = test system: S. pneumoniae D39V; assay: as above
In short: as §1

[4] = test system: S. aureus Newman; assay: as above
In short: as §1

[5] = test system: S. aureus DSM 20231; assay: fitness (endpoint OD595 vs no drug) (fraction); higher = more growth
In short: (§2)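 In 384-well plates at 37 °C, cultures began at OD595 0.01 in 30 µl, with 55 µl used for S. pneumoniae. OD595 readings every 30 min for 14 h were corrected by the first reading. Fitness divides the stationary-phase transition optical density by the robust mean of no-drug control wells. The result is capped at 1.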

[6] = test system: S. aureus Newman; assay: as above
In short: as §2

[7] = test system: B. subtilis 168; assay: as above
In short: as §2
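Throughout, for Bliss interaction score (quartile over a dose matrix): first quartile when negative (synergy) and third quartile when positive (antagonism).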
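Throughout, for fitness (endpoint OD595 vs no drug): OD595 on entry to stationary phase over no-drug wells; at most 1.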

CC[C@H]1OC(=O)[C@H](C)[C@@H](O[C@H]2C[C@@](C)(OC)[C@@H](O)[C@H](C)O2)[C@H](C)[C@@H](O[C@@H]2O[C@H](C)C[C@H](N(C)C)[C@H]2O)[C@](C)(O)C[C@@H](C)CN(C)[C@H](C)[C@@H](O)[C@]1(C)O [Azithromycin] + O=C(N[C@H](CO)[C@H](O)c1ccc([N+](=O)[O-])cc1)C(Cl)Cl [Chloramphenicol]
Conditions | Bliss interaction score
[1] | -0.153
[2] | -0.116
[3] | 0.0336
[4] | -0.101

fitness
Conditions | first compound 0.125 µg/mL | first compound 0.25 µg/mL | first compound 0.5 µg/mL
[5], partner 0.75 µg/mL | 0.703 | 0.657 | 0.29
[5], partner 1.5 µg/mL | 0.544 | 0.366 | 0.139
[5], partner 3 µg/mL | 0.155 | 0.113 | 0.0604
[6], partner 0.75 µg/mL | 0.76 | 0.692 | 0.461
[6], partner 1.5 µg/mL | 0.515 | 0.527 | 0.253
[6], partner 3 µg/mL | – | 0.2 | 0.109

CC[C@H]1OC(=O)[C@H](C)[C@@H](O[C@H]2C[C@@](C)(OC)[C@@H](O)[C@H](C)O2)[C@H](C)[C@@H](O[C@@H]2O[C@H](C)C[C@H](N(C)C)[C@H]2O)[C@](C)(O)C[C@@H](C)CN(C)[C@H](C)[C@@H](O)[C@]1(C)O [Azithromycin] + CC(=O)NC[C@H]1CN(c2ccc(N3CCOCC3)c(F)c2)C(=O)O1 [Linezolid]
Conditions | Bliss interaction score
[1] | -0.0673
[2] | -0.0849
[3] | -0.0318
[4] | -0.0582

fitness
Conditions | first compound 0.125 µg/mL | first compound 0.25 µg/mL | first compound 0.5 µg/mL | first compound 1 µg/mL
[5], partner 0.125 µg/mL | 0.768 | 0.744 | – | –
[5], partner 0.25 µg/mL | 0.608 | 0.557 | 0.191 | –
[5], partner 0.5 µg/mL | – | 0.151 | 0.0625 | –
[7], partner 0.25 µg/mL | – | – | 0.106 | –
[7], partner 0.5 µg/mL | – | 0.0659 | 0.0597 | 0.0407

one replicate
Conditions | fitness
[5], first compound 0.125 µg/mL, partner 1 µg/mL | 0.0489
[5], first compound 0.25 µg/mL, partner 1 µg/mL | 0.0402
[5], first compound 0.5 µg/mL, partner 1 µg/mL | 0.0193
[7], first compound 0.5 µg/mL, partner 0.0625 µg/mL | 0.759
[7], first compound 1 µg/mL, partner 0.0625 µg/mL | 0.287
[7], first compound 2 µg/mL, partner 0.0625 µg/mL | 0.023
[7], first compound 2 µg/mL, partner 0.125 µg/mL | 0
[7], first compound 2 µg/mL, partner 0.25 µg/mL | 0.029

CN(N=O)C(=O)N[C@@H](C=O)[C@@H](O)[C@H](O)[C@H](O)CO [Streptozotocin] + COc1cc(Cc2cnc(N)nc2N)cc(OC)c1OC [Trimethoprim]
Conditions | Bliss interaction score
[1] | -0.0675
[2] | 0.062
[3] | -0.125
[4] | -0.12

fitness, one replicate
Conditions | first compound 0.15 µg/mL | first compound 0.3 µg/mL | first compound 0.6 µg/mL
[5], partner 0.125 µg/mL | 0.645 | 0.666 | 0.602
[7], partner 0.1 µg/mL | 0.903 | 0.871 | 0.9
[7], partner 0.125 µg/mL | 0.748 | 0.728 | 0.731
[7], partner 0.2 µg/mL | 0.758 | 0.703 | 0.805
[7], partner 0.4 µg/mL | 0.523 | 0.536 | 0.521

fitness
Conditions | first compound 0.15 µg/mL | first compound 0.3 µg/mL | first compound 0.6 µg/mL
[5], partner 0.25 µg/mL | 0.549 | 0.557 | 0.493
[5], partner 0.5 µg/mL | 0.0352 | 0.0171 | 0.0159
[5], partner 1 µg/mL | 0.0265 | 0.0265 | 0.0187
[7], partner 0.5 µg/mL | 0.51 | 0.496 | 0.501
